# Test system: mugineic acid-Fe complex transporter HvYS1
# Assay: Iron uptake activity: electrophysiological measurement of intracellular uptake of mugineic acid-Fe complex in oocytes expressing the transporter
# Type: cell-based, barley
# Conditions: substrate-Fe complex final concentration 50 μM; African clawed frog oocytes expressing HvYS1; natural mugineic acid set to 100%; FIG. 1
# From the text: Concerning the S isomer (natural form) and R isomer of 2′-OH obtained in Example 12, 2′-deoxy isomer obtained in Example 9, and mugineic acid purified from barley by the method described in “Takagi, S. et al., Journal of Plant Nutrition, 1984, 7th volume, p 469-477”, it was verified that the intracellular uptake of iron complex thereof actually takes place via the mugineic acid-Fe complex transporter. According to the method described in “Murata, Y. et al., Plant Journal (Plant J), 2006, 46th volume, p. 563-572.”, the gene HvYS1 gene which codes the mugineic acid-Fe complex transporter of barley (Plant J. 2006, vol. 46, 563-572) was introduced into the oocytes of the African clawed frog. […] The intracellular uptake of mugineic acid-Fe complex was measured using Oocyte clamp OC-725C (Warner Instrument) by the detection of electrochemical signal. More specifically, the oocyte which expressed the mugineic acid-Fe complex transporter HvYS1 was set to the chamber filled with ND-96 solution, 10 μl of a 5 mM substrate-Fe complex solution (final concentration 50 μM) was sprinkled on the oocyte and the electrical physiological activity was measured. The oocyte was plugged with 2 microelectrodes filled with 3M KCl, and with the mode in which the electric potential of the experimental tank was fixed at 0 V, the current value changing at a fixed electrical potential, […], was measured. […]
structure (smiles),measurement,value
"O=C(O)[C@@H](NCC[C@H](O)C(=O)O)[C@@H](O)CN1CC[C@H]1C(=O)O [natural mugineic acid, mugineic acid]","size of the current value (electrical physiological activity), relative value to natural mugineic acid",100%

# Reference: US20100256395A1, “EFFICIENT METHOD FOR PRODUCING MUGINEIC ACIDS” (SUNTORY HOLDINGS LIMITED, priority 2006, published 2010)
